{"source": "ChEMBL document CHEMBL1201862", "about": "“PubChem BioAssay data set” (2004)", "key": {"[1]": {"molecular_target": "Potassium voltage-gated channel subfamily KQT member 2 (Rattus norvegicus, UniProt O88943, W236L)", "sequence (O88943 whole entry W236L)": "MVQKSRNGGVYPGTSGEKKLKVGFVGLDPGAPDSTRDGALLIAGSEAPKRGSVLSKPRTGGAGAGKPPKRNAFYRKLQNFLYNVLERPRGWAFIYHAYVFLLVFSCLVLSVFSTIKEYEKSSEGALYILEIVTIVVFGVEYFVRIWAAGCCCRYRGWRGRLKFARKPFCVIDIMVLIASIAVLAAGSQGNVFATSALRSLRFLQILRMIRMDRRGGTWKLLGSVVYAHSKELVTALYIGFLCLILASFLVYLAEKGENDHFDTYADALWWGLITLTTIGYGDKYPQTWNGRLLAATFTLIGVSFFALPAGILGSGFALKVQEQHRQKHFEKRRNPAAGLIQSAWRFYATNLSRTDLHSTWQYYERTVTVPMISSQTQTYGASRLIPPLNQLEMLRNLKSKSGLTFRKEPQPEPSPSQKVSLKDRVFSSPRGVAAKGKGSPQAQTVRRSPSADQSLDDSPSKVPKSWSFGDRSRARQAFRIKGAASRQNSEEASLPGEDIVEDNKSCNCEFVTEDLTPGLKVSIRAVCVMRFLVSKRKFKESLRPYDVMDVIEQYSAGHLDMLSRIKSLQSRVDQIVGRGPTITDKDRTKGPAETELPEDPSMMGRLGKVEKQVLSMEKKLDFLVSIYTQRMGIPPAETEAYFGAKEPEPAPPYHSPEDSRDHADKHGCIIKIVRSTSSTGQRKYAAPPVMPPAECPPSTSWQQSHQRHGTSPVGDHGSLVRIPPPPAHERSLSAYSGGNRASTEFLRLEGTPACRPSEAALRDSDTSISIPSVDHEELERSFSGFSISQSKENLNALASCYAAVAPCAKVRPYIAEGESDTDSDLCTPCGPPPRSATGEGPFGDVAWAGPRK", "experiment": "KCNQ2 channel potentiators, dose response, mechanism study for KCNQ2 potentiator project, cell-based, automated electrophysiology (AID 2603)", "assay_type": "functional"}, "Procathepsin L": {"molecular_target": "Procathepsin L (Homo sapiens, UniProt P07711)", "sequence (P07711 whole entry)": "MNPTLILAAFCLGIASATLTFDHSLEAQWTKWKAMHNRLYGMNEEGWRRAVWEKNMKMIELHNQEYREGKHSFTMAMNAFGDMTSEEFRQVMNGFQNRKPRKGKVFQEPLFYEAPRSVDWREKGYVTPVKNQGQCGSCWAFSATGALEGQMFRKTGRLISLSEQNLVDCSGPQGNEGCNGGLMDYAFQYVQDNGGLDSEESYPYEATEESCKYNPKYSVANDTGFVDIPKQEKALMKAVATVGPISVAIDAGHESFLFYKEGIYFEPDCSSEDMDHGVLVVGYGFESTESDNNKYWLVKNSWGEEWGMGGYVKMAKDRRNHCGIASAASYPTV", "experiment": "cathepsin L inhibitors, dose response, counter-screen for M1/M17 aminopeptidase inhibitor project, biochemical, QFRET, 1536-well (AID 2214)"}, "Aspartyl aminopeptidase": {"molecular_target": "Aspartyl aminopeptidase (Plasmodium falciparum 3D7, UniProt Q8I2J3)", "experiment": "Counterscreen for inhibitors of M1 and M17 aminopeptidases: QFRET-based biochemical high throughput dose response assay for inhibitors of the Plasmodium falciparum M18 Aspartyl Aminopeptidase (PFM18AAP). [Related PubChem assays: 1619 (Screening assay (M17LAP inhibitors).), 1445 (Screening assay (M1AAP inhibitors).)]"}, "Aminopeptidase N": {"molecular_target": "T1, Aminopeptidase N (Plasmodium falciparum FcB1/Columbia, UniProt O96935)", "T1 sequence (O96935 whole entry)": "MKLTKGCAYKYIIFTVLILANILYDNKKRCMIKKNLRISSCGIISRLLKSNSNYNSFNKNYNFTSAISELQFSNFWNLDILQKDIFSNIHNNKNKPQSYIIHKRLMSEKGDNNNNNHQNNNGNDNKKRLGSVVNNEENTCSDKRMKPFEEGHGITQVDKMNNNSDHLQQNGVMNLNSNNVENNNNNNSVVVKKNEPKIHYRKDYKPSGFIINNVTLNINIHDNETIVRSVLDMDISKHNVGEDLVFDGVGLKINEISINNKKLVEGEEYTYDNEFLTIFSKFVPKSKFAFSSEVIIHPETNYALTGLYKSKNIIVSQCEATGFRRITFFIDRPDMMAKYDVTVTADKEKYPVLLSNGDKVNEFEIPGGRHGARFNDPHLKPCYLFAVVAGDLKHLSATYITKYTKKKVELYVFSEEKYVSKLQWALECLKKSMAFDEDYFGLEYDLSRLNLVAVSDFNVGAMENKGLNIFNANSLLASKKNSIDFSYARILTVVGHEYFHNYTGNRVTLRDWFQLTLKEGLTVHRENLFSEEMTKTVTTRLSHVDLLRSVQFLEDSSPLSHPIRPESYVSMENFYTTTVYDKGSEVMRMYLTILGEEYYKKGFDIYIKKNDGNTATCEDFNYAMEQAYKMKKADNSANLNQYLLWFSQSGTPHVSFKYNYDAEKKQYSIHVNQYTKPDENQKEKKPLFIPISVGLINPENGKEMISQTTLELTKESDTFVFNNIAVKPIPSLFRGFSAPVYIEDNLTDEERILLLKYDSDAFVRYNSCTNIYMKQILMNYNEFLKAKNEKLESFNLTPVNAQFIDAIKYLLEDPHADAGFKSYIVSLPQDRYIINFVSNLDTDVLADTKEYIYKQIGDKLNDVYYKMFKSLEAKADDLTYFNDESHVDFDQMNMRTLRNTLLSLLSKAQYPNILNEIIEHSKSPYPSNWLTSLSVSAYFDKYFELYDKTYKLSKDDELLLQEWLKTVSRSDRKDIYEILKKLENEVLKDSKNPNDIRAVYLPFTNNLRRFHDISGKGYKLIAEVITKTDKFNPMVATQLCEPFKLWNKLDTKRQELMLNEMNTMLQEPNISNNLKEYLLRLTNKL", "experiment": "P. falciparum M1AAP inhibitors, biochemical, fluorogenic H-Leu-NHMec substrate, 1536-well (AID 1445)", "parameters": "species or system Plasmodium falciparum 3D7, 3D7"}, "Estrogen receptor [2]": {"molecular_target": "T2, Estrogen receptor (Homo sapiens, UniProt P03372)", "T2 sequence (P03372 whole entry, the tested form may be a part)": "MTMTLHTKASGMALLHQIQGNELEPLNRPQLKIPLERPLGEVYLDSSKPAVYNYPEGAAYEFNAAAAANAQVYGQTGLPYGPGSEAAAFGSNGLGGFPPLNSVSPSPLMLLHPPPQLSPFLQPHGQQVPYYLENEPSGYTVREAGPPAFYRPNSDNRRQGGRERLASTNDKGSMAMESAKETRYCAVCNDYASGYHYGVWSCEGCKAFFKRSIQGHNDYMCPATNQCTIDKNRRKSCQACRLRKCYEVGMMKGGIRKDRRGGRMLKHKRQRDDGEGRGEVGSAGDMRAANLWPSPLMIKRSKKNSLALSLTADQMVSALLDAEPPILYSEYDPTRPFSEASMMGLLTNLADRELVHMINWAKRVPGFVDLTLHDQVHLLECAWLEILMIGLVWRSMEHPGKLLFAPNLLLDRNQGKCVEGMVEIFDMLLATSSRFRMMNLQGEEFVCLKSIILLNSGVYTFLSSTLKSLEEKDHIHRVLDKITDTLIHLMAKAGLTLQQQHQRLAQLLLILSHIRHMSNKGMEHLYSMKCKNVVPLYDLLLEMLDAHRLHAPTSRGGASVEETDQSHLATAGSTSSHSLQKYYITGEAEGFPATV", "experiment": "potentiators of ERα–SRC-1 coactivator binding, dose response, biochemical, TR-FRET, ERα LBD (AID 737)"}, "Estrogen receptor [3]": {"molecular_target": "T2, Estrogen receptor"}, "Estrogen receptor beta": {"molecular_target": "Estrogen receptor beta (Homo sapiens, UniProt Q92731)", "sequence (Q92731 whole entry)": "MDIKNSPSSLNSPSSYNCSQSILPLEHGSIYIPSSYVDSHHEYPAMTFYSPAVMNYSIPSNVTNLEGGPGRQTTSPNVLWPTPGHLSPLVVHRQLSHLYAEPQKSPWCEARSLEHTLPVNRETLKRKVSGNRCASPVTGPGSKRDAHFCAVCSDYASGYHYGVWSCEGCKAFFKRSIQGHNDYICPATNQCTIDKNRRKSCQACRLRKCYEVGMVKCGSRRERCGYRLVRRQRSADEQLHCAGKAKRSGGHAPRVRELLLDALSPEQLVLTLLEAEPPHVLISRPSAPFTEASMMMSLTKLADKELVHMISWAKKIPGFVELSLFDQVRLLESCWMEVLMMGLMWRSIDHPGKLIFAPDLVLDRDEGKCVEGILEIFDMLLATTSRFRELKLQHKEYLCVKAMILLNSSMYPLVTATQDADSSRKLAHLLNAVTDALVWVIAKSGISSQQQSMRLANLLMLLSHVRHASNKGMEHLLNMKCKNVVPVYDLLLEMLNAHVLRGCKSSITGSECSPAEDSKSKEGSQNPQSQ"}, "[4]": {"molecular_target": "T3, E3 ubiquitin-protein ligase XIAP (Homo sapiens, UniProt P98170)", "T3 sequence (P98170 whole entry)": "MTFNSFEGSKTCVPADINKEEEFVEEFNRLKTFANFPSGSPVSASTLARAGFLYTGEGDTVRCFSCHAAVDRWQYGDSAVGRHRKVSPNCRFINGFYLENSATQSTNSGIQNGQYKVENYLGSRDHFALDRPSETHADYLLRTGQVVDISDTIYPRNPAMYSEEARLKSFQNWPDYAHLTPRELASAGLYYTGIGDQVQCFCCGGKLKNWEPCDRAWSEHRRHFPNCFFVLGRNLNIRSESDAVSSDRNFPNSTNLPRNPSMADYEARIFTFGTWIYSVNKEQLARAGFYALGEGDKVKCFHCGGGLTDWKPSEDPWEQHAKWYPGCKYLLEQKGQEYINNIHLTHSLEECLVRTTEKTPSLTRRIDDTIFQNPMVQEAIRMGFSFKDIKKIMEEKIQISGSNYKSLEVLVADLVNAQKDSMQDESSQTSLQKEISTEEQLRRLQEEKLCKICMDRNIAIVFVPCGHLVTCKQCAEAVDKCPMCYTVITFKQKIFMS", "experiment": "Counter Screen using XIAP-Bir3 for Chemical Antagonists of Bir1/2 domains of IAP-family anti-apoptotic proteins. [Related pubchem assays (depositor defined):AID1018, AID1449, AID1514, AID1638, AID1749, AID1750, AID488957, AID488963]"}, "[5]": {"molecular_target": "T3, E3 ubiquitin-protein ligase XIAP", "experiment": "XIAP antagonists, biochemical, IAP family, fluorescence polarization (AID 1018)", "assay_type": "functional"}, "NADPH oxidase 1": {"molecular_target": "NADPH oxidase 1 (Homo sapiens, UniProt Q9Y5S8)", "sequence (Q9Y5S8 whole entry)": "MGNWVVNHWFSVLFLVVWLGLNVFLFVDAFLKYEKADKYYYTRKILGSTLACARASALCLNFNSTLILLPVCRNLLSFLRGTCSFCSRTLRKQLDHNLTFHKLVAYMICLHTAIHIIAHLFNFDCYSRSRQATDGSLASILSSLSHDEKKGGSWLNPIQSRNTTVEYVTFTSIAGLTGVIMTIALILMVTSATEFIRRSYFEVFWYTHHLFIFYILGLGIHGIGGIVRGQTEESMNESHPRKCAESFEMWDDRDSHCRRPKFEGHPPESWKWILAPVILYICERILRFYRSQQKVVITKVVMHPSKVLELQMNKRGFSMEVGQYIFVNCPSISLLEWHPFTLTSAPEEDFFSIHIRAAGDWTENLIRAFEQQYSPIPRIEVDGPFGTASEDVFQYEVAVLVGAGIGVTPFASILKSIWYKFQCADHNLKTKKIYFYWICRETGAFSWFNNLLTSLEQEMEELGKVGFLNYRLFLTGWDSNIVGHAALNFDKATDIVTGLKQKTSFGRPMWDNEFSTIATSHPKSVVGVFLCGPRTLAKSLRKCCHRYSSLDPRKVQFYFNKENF", "assay_type": "functional, cell-based"}, "[6]": {"molecular_target": "Sphingosine 1-phosphate receptor 1 (Homo sapiens, UniProt P21453)", "sequence (P21453 whole entry)": "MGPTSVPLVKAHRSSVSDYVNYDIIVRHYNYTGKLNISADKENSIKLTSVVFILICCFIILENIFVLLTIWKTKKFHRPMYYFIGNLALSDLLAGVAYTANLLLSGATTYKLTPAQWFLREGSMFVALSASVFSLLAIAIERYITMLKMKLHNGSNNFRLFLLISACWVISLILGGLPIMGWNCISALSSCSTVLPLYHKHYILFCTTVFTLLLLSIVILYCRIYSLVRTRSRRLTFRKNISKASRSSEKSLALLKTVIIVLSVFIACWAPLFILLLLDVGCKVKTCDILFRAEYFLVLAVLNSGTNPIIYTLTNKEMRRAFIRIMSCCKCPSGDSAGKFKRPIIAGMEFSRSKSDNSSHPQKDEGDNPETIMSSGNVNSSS", "experiment": "Dose Response Cell-Based Assay for Agonists of the Sphingosine 1-Phosphate Receptor 1 (S1P1): Purchased Analogues. [Related pubchem assays: 1192, 373, 439 ]", "assay_type": "functional"}, "[7]": {"molecular_target": "T4, Sphingosine 1-phosphate receptor 2 (Homo sapiens, UniProt O95136)", "T4 sequence (O95136 whole entry)": "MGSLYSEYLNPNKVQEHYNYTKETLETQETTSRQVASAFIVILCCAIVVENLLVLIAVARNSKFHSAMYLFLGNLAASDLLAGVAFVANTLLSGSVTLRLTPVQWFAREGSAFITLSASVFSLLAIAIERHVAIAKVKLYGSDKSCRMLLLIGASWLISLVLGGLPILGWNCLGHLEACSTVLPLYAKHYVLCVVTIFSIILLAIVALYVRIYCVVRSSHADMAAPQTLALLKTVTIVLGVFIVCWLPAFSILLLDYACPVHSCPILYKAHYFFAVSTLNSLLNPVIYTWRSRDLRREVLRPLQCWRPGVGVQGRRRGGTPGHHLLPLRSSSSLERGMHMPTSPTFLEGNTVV", "experiment": "Dose Response Cell-Based Assay for Agonists of the Sphingosine 1-Phosphate Receptor 2 (S1P2): Purchased Analogues. [Related pubchem assays: 1192, 373, 439 ]", "assay_type": "functional"}, "[8]": {"molecular_target": "Sphingosine 1-phosphate receptor 3 (Homo sapiens, UniProt Q99500)", "sequence (Q99500 whole entry)": "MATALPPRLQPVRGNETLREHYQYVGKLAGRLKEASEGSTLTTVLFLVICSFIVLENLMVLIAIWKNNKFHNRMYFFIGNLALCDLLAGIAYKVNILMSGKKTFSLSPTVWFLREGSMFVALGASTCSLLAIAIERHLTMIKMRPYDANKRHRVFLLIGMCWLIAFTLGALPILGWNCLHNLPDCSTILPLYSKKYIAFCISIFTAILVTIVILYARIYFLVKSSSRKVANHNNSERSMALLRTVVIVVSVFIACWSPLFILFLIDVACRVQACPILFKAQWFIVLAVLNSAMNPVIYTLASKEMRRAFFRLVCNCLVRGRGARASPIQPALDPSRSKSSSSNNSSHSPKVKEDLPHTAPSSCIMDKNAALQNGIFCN", "experiment": "Dose Response Cell-Based Assay for Agonists of the Sphingosine 1-Phosphate Receptor 3 (S1P3): Purchased Analogues. [Related pubchem assays: 373, 439 ]", "assay_type": "functional"}, "[9]": {"molecular_target": "T4, Sphingosine 1-phosphate receptor 2", "experiment": "Dose Response Cell Based Assay for Agonists of the S1P2 Receptor of Purchased Analogues. [Related pubchem assays: 729, 843, 854, 736 ]", "assay_type": "functional"}, "[10]": {"experiment": "C. albicans growth with fluconazole, confirmation, fluorescence, retest (AID 2467)", "assay_type": "functional, cell-based"}, "[11]": {"experiment": "Luminescence Cell-Based Dose Confirmation HTS to Identify Inhibitors of Polyadenylation.", "assay_type": "functional"}, "[12]": {"experiment": "NIH-3T3 fibroblast cytotoxicity, dose response, cytotoxicity control, cell-based, fluorescence, Alamar Blue, secondary assay (AID 2327);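 also: NIH-3T3 mouse fibroblasts cultured with fluconazole at 8 µg/mL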", "assay_type": "functional"}, "[13]": {"molecular_target": "ATP-dependent molecular chaperone HSP82 (Candida albicans (strain WO-1) (Yeast), UniProt C4YTQ8)", "experiment": "loss of DOC-induced GRE-beta-galactosidase reporter signal, dose response, Hsp90 inhibitor project, S. cerevisiae, luminescence (AID 2400);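 also: beta-galactosidase luminescence from glucocorticoid response element reporter as proxy for Hsp90 function; inhibitor potency where signal loss means Hsp90 inhibition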", "assay_type": "functional, cell-based"}, "[14]": {"molecular_target": "T5, Serine/threonine-protein phosphatase (Candida dubliniensis (strain CD36 / CBS 7987 / NCPF 3949 / NRRLY-17841) (Yeast), UniProt B9W6M3)", "T5 sequence (B9W6M3 whole entry)": "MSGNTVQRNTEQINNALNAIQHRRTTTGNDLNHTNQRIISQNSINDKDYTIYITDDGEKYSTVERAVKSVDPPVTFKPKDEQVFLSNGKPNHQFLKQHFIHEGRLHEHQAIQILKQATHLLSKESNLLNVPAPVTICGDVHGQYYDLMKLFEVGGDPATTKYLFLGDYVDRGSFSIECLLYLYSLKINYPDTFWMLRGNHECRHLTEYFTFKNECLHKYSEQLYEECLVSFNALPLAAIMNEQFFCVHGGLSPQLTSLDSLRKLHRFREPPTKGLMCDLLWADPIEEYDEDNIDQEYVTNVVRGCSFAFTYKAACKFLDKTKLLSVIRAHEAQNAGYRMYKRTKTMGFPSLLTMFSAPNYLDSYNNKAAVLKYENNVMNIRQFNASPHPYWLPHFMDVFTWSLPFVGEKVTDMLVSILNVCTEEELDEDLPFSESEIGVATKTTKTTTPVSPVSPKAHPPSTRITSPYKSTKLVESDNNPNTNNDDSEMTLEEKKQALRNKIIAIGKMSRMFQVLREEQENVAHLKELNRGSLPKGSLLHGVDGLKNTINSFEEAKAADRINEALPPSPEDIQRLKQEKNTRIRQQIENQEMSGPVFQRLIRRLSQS", "experiment": "calcineurin pathway inhibitors in yeast reporter, dose response, S. cerevisiae, CDRE-lacZ, luminescence, secondary (AID 2388);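 also: yeast reporter cells carrying a calcineurin-responsive lacZ construct stimulated with calcium chloride; luminescent beta-galactosidase reporter signal in whole cells rather than isolated phosphatase activity; potency for inhibition where a drop in reporter signal means calcineurin blockade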", "assay_type": "functional, cell-based"}, "[15]": {"experiment": "cytotoxicity in HEK-293T cells, dose response, cytotoxicity control for TCR NF-kB inhibitor project, luminescence, T-cell screen hits (AID 489026);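 also: cells exposed to compound about 14 hours before the viability readout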", "assay_type": "functional, cell-based"}, "[16]": {"experiment": "Luminescence Cell-Based Dose Retest to Confirm Inhibitors of Cancer Stem Cells. [Related pubchem assays (depositor defined):AID2717, AID2721]", "assay_type": "functional", "conditions": "Homo sapiens"}, "[17]": {"experiment": "Luminescence-based dose response cell-based high throughput screening assay for cytotoxic compounds using the IEC-6 intestinal epithelial cell line. [Related pubchem assays: 1858 (Summary AID.), 1825 (Counterscreen.), 1907 (Confirmation screen.)]", "assay_type": "functional"}, "[18]": {"molecular_target": "Inward rectifier potassium channel 2 (Mus musculus, UniProt P35561)", "sequence (P35561 whole entry)": "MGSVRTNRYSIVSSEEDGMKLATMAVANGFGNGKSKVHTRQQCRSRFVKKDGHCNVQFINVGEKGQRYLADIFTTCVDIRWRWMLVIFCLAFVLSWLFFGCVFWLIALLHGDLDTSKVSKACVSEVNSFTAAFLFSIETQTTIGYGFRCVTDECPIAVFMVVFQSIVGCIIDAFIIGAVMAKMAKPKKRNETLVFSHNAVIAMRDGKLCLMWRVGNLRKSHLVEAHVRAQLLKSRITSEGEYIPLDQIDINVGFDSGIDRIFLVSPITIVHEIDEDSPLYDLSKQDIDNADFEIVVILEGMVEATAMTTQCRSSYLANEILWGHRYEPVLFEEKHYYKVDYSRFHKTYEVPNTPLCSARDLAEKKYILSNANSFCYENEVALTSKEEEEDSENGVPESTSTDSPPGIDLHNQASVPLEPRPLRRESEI", "experiment": "Manual electrophysiological patch clamp assay for SAR compounds that inhibit/block inward-rectifying potassium ion channel Kir2.1. [Related pubchem assays: 1843 (Summary assay for Kir2.1 inhibitor assays.), 1672 (Primary HTS of 305616 compounds where 2592 were identified as active.)]", "assay_type": "functional"}}, "note": "Calls of active or inactive are those of the source.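 For AC50 in this document: cells exposed to compound for roughly 70 hours or longer before luminescence read.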"}
{"smiles": "CCOc1ccccc1NC(=O)NC(C)c1ccc2c(c1)OCO2", "note": "(stereo not drawn)", "values": [{"measurement": "EC50", "setting": "[1]", "value": "1.51 µM (active)"}]}
{"smiles": "COc1ccc(C2CC(c3c(-c4ccccc4)c4cc(Cl)ccc4[nH]c3=O)=NN2C(=O)CCC(=O)O)cc1", "note": "(stereo not drawn)", "values": [{"measurement": "IC50", "setting": "Procathepsin L", "value": "> 59.6 µM (not active)"}, {"measurement": "IC50", "setting": "Aspartyl aminopeptidase", "value": "> 73.5 µM (not active)"}, {"measurement": "IC50", "setting": "Aminopeptidase N", "value": "4.93 µM (active)"}]}
{"smiles": "COc1cccc(C2CC(c3ccc(F)cc3)Nc3nc(N)nn32)c1", "note": "(stereo not drawn)", "values": [{"measurement": "EC50", "setting": "Estrogen receptor [2]", "value": "6.71 µM (not active)"}]}
{"smiles": "O=C(NCc1ccco1)c1cc2cc3ccc(Cl)cc3nc2o1", "values": [{"measurement": "IC50", "setting": "Estrogen receptor [3]", "value": "17.7 µM (active)"}, {"measurement": "IC50", "setting": "Estrogen receptor beta", "value": "> 50 µM (not active)"}]}
{"smiles": "Cc1ccc(NC(=O)CNC2CCS(=O)(=O)C2)cc1C", "note": "(stereo not drawn)", "values": [{"measurement": "IC50", "setting": "[4]", "value": "> 100 µM (inactive)"}, {"measurement": "IC50", "setting": "[5]", "value": "> 100 µM (not active)"}]}
{"smiles": "COc1ccc(NC(=O)Nc2ccc3c(c2)CCN3S(=O)(=O)c2ccccc2)cc1", "values": [{"measurement": "IC50", "setting": "NADPH oxidase 1", "value": "> 17 µM (not active)"}]}
{"smiles": "Cc1cc(C(=O)N(C)C2CCCCC2)no1", "values": [{"measurement": "EC50", "setting": "[6]", "value": "> 50 µM (not active)"}, {"measurement": "EC50", "setting": "[7]", "value": "> 10 µM (not active)"}, {"measurement": "EC50", "setting": "[8]", "value": "> 50 µM (not active)"}]}
{"smiles": "Cc1nc(C)c(C(=O)OCC(=O)c2cc(C)n(Cc3ccccc3)c2C)s1", "values": [{"measurement": "EC50", "setting": "[9]", "value": "> 30 µM (not active)"}]}
{"smiles": "Cc1ccc(NC(=O)c2sc3nc(N)c(C#N)cc3c2N)cc1", "values": [{"measurement": "EC50", "setting": "[10]", "value": "1.2 µM (active)"}, {"measurement": "EC50", "setting": "[11]", "value": "15.2 µM (active)"}, {"measurement": "EC50", "setting": "[12]", "value": "> 150 µM (inactive)"}, {"measurement": "EC50", "setting": "[13]", "value": "> 150 µM (inactive)"}, {"measurement": "EC50", "setting": "[14]", "value": "> 180 µM (inactive)"}]}
{"smiles": "COc1ccc(NS(=O)(=O)c2cc(-c3cnc(C4CC4)o3)ccc2C)cc1", "values": [{"measurement": "IC50", "setting": "[15]", "value": "70.5 µM (inactive)"}, {"measurement": "AC50", "setting": "[16]", "value": "0.405 µM (active)"}, {"measurement": "IC50", "setting": "[17]", "value": "2.08 µM (active)"}]}
{"smiles": "COc1ccc(CNCc2ccc(Cl)cc2)cc1", "values": [{"measurement": "IC50", "setting": "[18]", "value": "0.711 µM (active)"}]}
